Measurements published in patent publication US12528814B2, “Bifunctional degraders of interleukin-1 receptor-associated kinases and therapeutic use thereof” (NURIX THERAPEUTICS, INC., priority 2020, dated 2026).
Read-outs that look alike come from different tables or passages of the source.

Columns and labels:
IRAK4 [1] = target: T1, IRAK4 (Homo sapiens (Human), UniProt Q9NWZ3); assay: IRAK4 Biochemical HTRF Kinase Assay; conditions: read-out: IRAK4 HTRF biochemical: IC50
Protocol: IRAK4 Biochemical HTRF Kinase Assay
The binding capacities of certain bifunctional compounds of Formula (I) were determined using the CisBio HTRF KinEASE STK S1 Kit (#62ST1PEB, contains 5× Kinase buffer, 1× Detection Buffer, anti-phospho-serine/threonine-cryptate, Streptavidin-XL665, and STK-S1), which measures the phosphorylation of a biotinylated peptide substrate by IRAK4, according to the manufacturer's protocol. […] 2 μl of a reaction solution containing 5 μM STK-S1, 10 mM ATP, and 10 mM MgCl2 were added to each well to a final volume of 10 μl. Assay controls include wells containing kinase with no compound (DMSO only) and wells containing no kinase and no compound (DMSO only). The reactions were allowed to proceed at ambient temperature for 90 minutes. […] The plates were incubated for 60 minutes at ambient temperature and then read on an Envision Multilabel Reader (PerkinElmer). […] For IC50 determination, the compounds were tested at sixteen concentrations in duplicate and curve-fitting was performed by non-linear regression analysis using GraphPad Priam.
Target sequence in this assay (Q9NWZ3 whole entry, species assumed): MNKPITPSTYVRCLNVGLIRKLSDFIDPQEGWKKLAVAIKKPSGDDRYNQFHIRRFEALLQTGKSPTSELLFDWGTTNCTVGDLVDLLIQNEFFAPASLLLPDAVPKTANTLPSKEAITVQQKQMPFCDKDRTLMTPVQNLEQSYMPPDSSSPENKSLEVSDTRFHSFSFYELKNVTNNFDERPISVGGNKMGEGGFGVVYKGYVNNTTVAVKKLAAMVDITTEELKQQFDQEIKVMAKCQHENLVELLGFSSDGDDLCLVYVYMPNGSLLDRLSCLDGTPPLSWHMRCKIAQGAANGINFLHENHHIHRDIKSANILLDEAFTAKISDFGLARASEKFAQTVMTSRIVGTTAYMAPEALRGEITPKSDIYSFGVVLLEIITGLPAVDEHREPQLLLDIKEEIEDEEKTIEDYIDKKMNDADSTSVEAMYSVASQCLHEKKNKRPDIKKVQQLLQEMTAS

IRAK4 [2] = target: T1, IRAK4; assay: IRAK4 Degradation HiBiT Assay; conditions: HiBiT-tagged Jurkat cells, 4 hrs; for Dmax: Jurkat; for DC50: read-out: Cellular IRAK4 HiBiT: DC50
Target sequence in this assay (Q9NWZ3 whole entry): as the sequence (Q9NWZ3 whole entry, species assumed) above
Protocol: Compound dilution series (11-point, 3.16-fold dilutions in DMSO, columns 1-11 and 12-22) at 500× the final required concentrations were prepared in Labcyte LDV 384-well plates (cat. no. LP-0200) using a Labcyte Echo 550 Liquid Handler. The 500× solutions ranged from 5 mM to 0.5 μM (final assay concentration range 10 μM to 0.1 nM). Using the Echo, the 500× solutions were stamped into white, 384-well assay plates (Corning, cat. no. 3570) at 60 nL/well. […] C-terminal HiBiT-tagged Jurkat cells (polyclonal cell line or clone 8D5) were plated at 1×10^6 cells/mL, 30 μL/well (3×10^4 cells/well) in complete RPMI (10% FBS, 1% L-glutamine). Cells were incubated for 4 hrs at 32° C./6% CO2.
Following incubation, 30 uL of complete Nano-Glo HiBiT Lytic Detection Reagent (Nano-Glo HiBiT Lytic Buffer with 1:50 Nano-Glo HiBiT Lytic Substrate and 1:100 LgBiT Protein; Promega cat. no. N3040) was added. Cells were further incubated for 10 min at room temperature (RT). Luminescence units (LU) were read on an EnVision plate reader (Perkin Elmer, 0.1 sec per well). Percent IRAK4 remaining per sample was calculated as follows:
Using Graphpad Prism, % IRAK4 remaining values were plotted as a function of compound concentration.

[3] = read-out: Cellular IRAK4 HiBiT: Dmax, Table 4
[4] = read-out: Cellular IRAK4 HiBiT: Dmax, Table 5, multiple runs

Structure (SMILES) | IC50 (IRAK4 [1]; Table 4) [µM] | IC50 (IRAK4 [1]; Table 5, multiple runs) [µM] | Dmax (IRAK4 [2]; [3]) [%] | Dmax (IRAK4 [2]; [4]) [%] | DC50 (IRAK4 [2]; Table 4) [µM] | DC50 (IRAK4 [2]; Table 5, multiple runs) [µM]
CC(C)Nc1cc(-c2ccc3cc(C#N)cnn23)ncc1-c1nnc(N2CCN(C(=O)C3CCN(c4ccc5c(c4)C(=O)N(C4CCC(=O)NC4=O)C5=O)CC3)CC2)s1 (centres unmarked) [Example 23, 7-{5-[5-(4-{1-[2-(2,6-dioxopiperidin-3-yl)-1,3-dioxo-2,3-dihydro-1H-isoindol-5-yl]piperidine-4-carbonyl}piperazin-1-yl)-1,3,4-thiadiazol-2-yl]-4-[(propan-2-yl)amino]pyridin-2-yl}pyrrolo[1,2-b]pyridazine-3-carbonitrile] | 0.0015 | 0.0015 | 97 | 108 | 0.184 | 0.057
CC(C)Nc1cc(-c2ccc3cc(C#N)cnn23)ncc1-c1nnc(N2CCC(NC(=O)C3CCN(c4ccc5c(c4)C(=O)N(C4CCC(=O)NC4=O)C5=O)CC3)CC2)s1 (centres unmarked) [Example 25, N-(1-(5-(6-(3-cyanopyrrolo[1,2-b]pyridazin-7-yl)-4-(isopropylamino)pyridin-3-yl)-1,3,4-thiadiazol-2-yl)piperidin-4-yl)-1-(2-(2,6-dioxopiperidin-3-yl)-1,3-dioxoisoindolin-5-yl)piperidine-4-carboxamide] | 0.0078 | 0.0078 | 69 | 77 | 0.188 | 0.16
CC(C)Nc1cc(-c2ccc3cc(C#N)cnn23)ncc1-c1nnc(N2CCN(CCCCc3ccc4c(c3)CN(C3CCC(=O)NC3=O)C4=O)CC2)s1 (centres unmarked) [Example 26, 7-(5-(5-(4-(4-(2-(2,6-dioxopiperidin-3-yl)-1-oxoisoindolin-5-yl)butyl)piperazin-1-yl)-1,3,4-thiadiazol-2-yl)-4-(isopropylamino)pyridin-2-yl)pyrrolo[1,2-b]pyridazine-3-carbonitrile] | 0.0009 | 0.0009 | 87 | 87 | 0.0942 | 0.0941
CC(C)Nc1cc(-c2ccc3cc(C#N)cnn23)ncc1-c1nnc(N2CCN(CCCc3ccc4c(c3)CN(C3CCC(=O)NC3=O)C4=O)CC2)s1 (centres unmarked) [Example 27, 7-(5-(5-(4-(3-(2-(2,6-dioxopiperidin-3-yl)-1-oxoisoindolin-5-yl)propyl)piperazin-1-yl)-1,3,4-thiadiazol-2-yl)-4-(isopropylamino)pyridin-2-yl)pyrrolo[1,2-b]pyridazine-3-carbonitrile] | 0.0003 | 0.0012 | 57 | 57 | 0.0706 | 0.0707
CC(C)Nc1cc(-c2ccc3cc(C#N)cnn23)ncc1-c1nnc(N2CCN(CCCCc3cccc4c3CN(C3CCC(=O)NC3=O)C4=O)CC2)s1 (centres unmarked) [Example 28, 7-(5-(5-(4-(4-(2-(2,6-dioxopiperidin-3-yl)-1-oxoisoindolin-4-yl)butyl)piperazin-1-yl)-1,3,4-thiadiazol-2-yl)-4-(isopropylamino)pyridin-2-yl)pyrrolo[1,2-b]pyridazine-3-carbonitrile] | 0.0004 | 0.0005 | 70 | 70 | 0.053 | 0.0531
CC(C)Nc1cc(-c2ccc3cc(C#N)cnn23)ncc1-c1nnc(N2CCN(CCCc3cccc4c3CN(C3CCC(=O)NC3=O)C4=O)CC2)s1 (centres unmarked) [Example 29, 7-(5-(5-(4-(3-(2-(2,6-dioxopiperidin-3-yl)-1-oxoisoindolin-4-yl)propyl)piperazin-1-yl)-1,3,4-thiadiazol-2-yl)-4-(isopropylamino)pyridin-2-yl)pyrrolo[1,2-b]pyridazine-3-carbonitrile] | 0.0008 | 0.0011 | 90 | 90 | 0.135 | 0.136
CC(C)Nc1cc(-c2ccc3cc(C#N)cnn23)ncc1-c1nnc(N2CCC(NC(=O)C3CCN(Cc4ccc5c(c4)C(=O)N(C4CCC(=O)NC4=O)C5=O)CC3)CC2)s1 (centres unmarked) [Example 30, N-(1-(5-(6-(3-cyanopyrrolo[1,2-b]pyridazin-7-yl)-4-(isopropylamino)pyridin-3-yl)-1,3,4-thiadiazol-2-yl)piperidin-4-yl)-1-((2-(2,6-dioxopiperidin-3-yl)-1,3-dioxoisoindolin-5-yl)methyl)piperidine-4-carboxamide] | 0.0009 | 0.0011 | 95 | 95 | 0.0734 | 0.0735
CC(C)Nc1cc(-c2ccc3cc(C#N)cnn23)ncc1-c1nnc(N2CCN(C(=O)CNc3cccc4c3C(=O)N(C3CCC(=O)NC3=O)C4=O)CC2)s1 (centres unmarked) [Example 31, 7-(5-(5-(4-((2-(2,6-dioxopiperidin-3-yl)-1,3-dioxoisoindolin-4-yl)glycyl)piperazin-1-yl)-1,3,4-thiadiazol-2-yl)-4-(isopropylamino)pyridin-2-yl)pyrrolo[1,2-b]pyridazine-3-carbonitrile] | 0.0018 | 0.0017 | 39 | 39 | 0.106 | 0.105
CC(C)Nc1cc(-c2ccc3cc(C#N)cnn23)ncc1-c1nnc(N2CCN(CC3CCN(c4cccc5c4n(C)c(=O)n5C4CCC(=O)NC4=O)CC3)CC2)s1 (centres unmarked) [Example 32, 7-(5-(5-(4-((1-(1-(2,6-dioxopiperidin-3-yl)-3-methyl-2-oxo-2,3-dihydro-1H-benzo[d]imidazol-4-yl)piperidin-4-yl)methyl)piperazin-1-yl)-1,3,4-thiadiazol-2-yl)-4-(isopropylamino)pyridin-2-yl)pyrrolo[1,2-b]pyridazine-3-carbonitrile] | 0.0023 | 0.0025 | 37 | 37 | 0.152 | 0.153
CC(C)Nc1cc(-c2ccc3cc(C#N)cnn23)ncc1-c1nnc(N2CCN(CC3CCN(c4ccc(C(=O)NC5CCC(=O)NC5=O)nc4)CC3)CC2)s1 (centres unmarked) [Example 33, 5-(4-((4-(5-(6-(3-cyanopyrrolo[1,2-b]pyridazin-7-yl)-4-(isopropylamino)pyridin-3-yl)-1,3,4-thiadiazol-2-yl)piperazin-1-yl)methyl)piperidin-1-yl)-N-(2,6-dioxopiperidin-3-yl)picolinamide] | 0.0021 | 0.0021 | 14 | – | > 10 | > 9.98
CC(C)Nc1cc(-c2ccc3cc(C#N)cnn23)ncc1-c1nnc(N2CCN(CC3CCN(c4ccc(C(=O)N(C)C5CCC(=O)NC5=O)cc4)CC3)CC2)s1 (centres unmarked) [Example 34, 4-(4-((4-(5-(6-(3-cyanopyrrolo[1,2-b]pyridazin-7-yl)-4-(isopropylamino)pyridin-3-yl)-1,3,4-thiadiazol-2-yl)piperazin-1-yl)methyl)piperidin-1-yl)-N-(2,6-dioxopiperidin-3-yl)-N-methylbenzamide] | 0.002 | 0.002 | 85 | 85 | 0.326 | 0.326
Cc1ncsc1-c1ccc([C@H](C)NC(=O)[C@@H]2C[C@@H](O)CN2C(=O)[C@@H](NC(=O)CCCCCCCC(=O)N2CCN(c3nnc(-c4cnc(-c5ccc6cc(C#N)cnn56)cc4NC(C)C)s3)CC2)C(C)(C)C)cc1 [Example 36, (2S,4R)-1-((S)-2-(9-(4-(5-(6-(3-cyanopyrrolo[1,2-b]pyridazin-7-yl)-4-(isopropylamino)pyridin-3-yl)-1,3,4-thiadiazol-2-yl)piperazin-1-yl)-9-oxononanamido)-3,3-dimethylbutanoyl)-4-hydroxy-N—((S)-1-(4-(4-methylthiazol-5-yl)phenyl)ethyl)pyrrolidine-2-carboxamide] | 0.0134 | 0.0134 | 84 | 85 | 0.315 | 0.287
Cc1ncsc1-c1ccc([C@H](C)NC(=O)[C@@H]2C[C@@H](O)CN2C(=O)[C@@H](NC(=O)CCCCCC(=O)N2CCN(c3nnc(-c4cnc(-c5ccc6cc(C#N)cnn56)cc4NC(C)C)s3)CC2)C(C)(C)C)cc1 [Example 37, (2S,4R)-1-((S)-2-(7-(4-(5-(6-(3-cyanopyrrolo[1,2-b]pyridazin-7-yl)-4-(isopropylamino)pyridin-3-yl)-1,3,4-thiadiazol-2-yl)piperazin-1-yl)-7-oxoheptanamido)-3,3-dimethylbutanoyl)-4-hydroxy-N—((S)-1-(4-(4-methylthiazol-5-yl)phenyl)ethyl)pyrrolidine-2-carboxamide] | 0.006 | 0.006 | 98 | 98 | 0.24 | 0.22
Cc1ncsc1-c1ccc([C@H](C)NC(=O)[C@@H]2C[C@@H](O)CN2C(=O)[C@@H](NC(=O)CCCCCCCCCC(=O)N2CCN(c3nnc(-c4cnc(-c5ccc6cc(C#N)cnn56)cc4NC(C)C)s3)CC2)C(C)(C)C)cc1 [Example 38, (2S,4R)-1-((S)-2-(11-(4-(5-(6-(3-cyanopyrrolo[1,2-b]pyridazin-7-yl)-4-(isopropylamino)pyridin-3-yl)-1,3,4-thiadiazol-2-yl)piperazin-1-yl)-11-oxoundecanamido)-3,3-dimethylbutanoyl)-4-hydroxy-N—((S)-1-(4-(4-methylthiazol-5-yl)phenyl)ethyl)pyrrolidine-2-carboxamide] | 0.0104 | 0.0104 | 34 | 34 | 0.128 | 0.128
